Tested on: hematopoietic progenitor cells induced from MDS-iPS cells
Test: Colony formation assay of hematopoietic progenitor cells with p38 inhibitor added
Type: cell-based, human
Details: 10 μM SB203580 in methylcellulose medium, HPC from MDS-iPSC and Normal iPSC derived from KM5 and KM16, colonies counted after 14 or 15 days, FIG. 19
Method: Using a 35 mm culture dish, 2500 cells from the cells of CD43^+CD34^+CD38^− fraction induced to differentiate from iPS cells (abnormal MDS-iPSCs (NonT-iPS) and Normal iPSCs (T-iPS)) and extracted by flow cytometer were seeded in 2 ml of a methylcellulose medium containing SCF, G-CSF, GM-CSF, IL-3, IL-6 and EPO (MethoCult H4435) according to the method of Example 2. After 15 days, the number of the colonies was counted under a microscope. After Cytospin, Wright's staining was performed, and the colony type was identified by microscopic observation.
To study whether the decreased colony-forming ability of hematopoietic progenitor cells induced from MDS-iPS cells is recovered by the effect of p38 inhibitor, colony formation assay was performed by a method similar to Example 3 except that a p38 inhibitor was added. In brief, using a 35 mm culture dish, 2500 cells from the cells of CD43+CD34+CD38-fraction induced to differentiate from iPS cells (MDS-iPSCs (NonT-iPS)) and Normal iPSCs (T-iPS)) and extracted by flow cytometer were seeded in 1.1 ml of a methylcellulose medium containing SCF, G-CSF, GM-CSF, IL-3, IL-6, EPO and 10 μM SB203580 (p38 inhibitor) according to the method of Example 2. After 14 or 15 days, the number of colonies was counted under a microscope. Furthermore, after Cytospin, Wright's staining was performed, and the colony type was identified by microscopic observation.

## C[S+]([O-])c1ccc(-c2nc(-c3ccncc3)c(-c3ccc(F)cc3)[nH]2)cc1 (centres unmarked) [SB203580]
  colony-forming ability (number of colonies): colony-forming ability-improving effect
Listed as p38 inhibitor
  colony-forming ability (number of colonies): improving effect on the colony-forming ability

Source: US20160146788A1, “METHOD FOR SCREENING DRUGS FOR TREATING/PREVENTING MYELODYSPLASTIC SYNDROME, ETC” (KYOTO UNIVERSITY, priority 2013, published 2016)
